For orientation: AC50 means the concentration at which the activity in the assay is half-maximal.

The structures appear in SMILES notation. Some results are limits rather than exact numbers.

Sequence of PKM2 (P14618 whole entry): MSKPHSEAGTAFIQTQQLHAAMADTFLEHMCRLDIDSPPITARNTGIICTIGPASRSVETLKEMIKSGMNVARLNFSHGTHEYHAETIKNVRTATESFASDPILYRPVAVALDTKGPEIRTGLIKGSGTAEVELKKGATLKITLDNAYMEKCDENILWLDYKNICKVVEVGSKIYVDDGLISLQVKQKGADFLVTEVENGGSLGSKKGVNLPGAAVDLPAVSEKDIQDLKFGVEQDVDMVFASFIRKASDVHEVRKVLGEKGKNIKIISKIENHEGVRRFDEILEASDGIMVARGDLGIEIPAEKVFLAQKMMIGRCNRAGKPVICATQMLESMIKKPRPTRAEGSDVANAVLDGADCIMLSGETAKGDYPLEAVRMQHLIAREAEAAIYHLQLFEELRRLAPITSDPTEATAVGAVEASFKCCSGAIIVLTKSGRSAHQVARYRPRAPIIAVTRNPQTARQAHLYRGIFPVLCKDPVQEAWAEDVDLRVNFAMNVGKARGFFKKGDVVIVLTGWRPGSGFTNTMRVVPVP

One assay concerns the target PKM2 (Homo sapiens, UniProt P14618). As to the kind of experiment: PKM2 Assay (activation, LDH-coupled, absorbance at 340 nm). To be noted: Table 4. The class given is biochemical. How it is done: • PKM2 stock enzyme solution was diluted in Reaction Buffer • 2 μL of compound was added into each well first, and then 180 μL of the Reaction Mix was added. • Reaction mixture with compound (without ADP) was incubated for 30 minutes at 4° C. • Plates were re-equilibrated to room temperature prior to adding 20 μL ADP to initiate the reaction. • Reaction progress was measured as changes in absorbance at 340 nm wavelength at room temperature (25° C.) Reaction Mix: PKM2 (50 ng/well), ADP (0.7 mM), PEP (0.15 mM), NADH (180 μM), LDH (2 units) in Reaction Buffer Reaction Buffer: 100 mM KCl, 50 mM Tris pH 7.5, 5 mM MgCl2, 1 mM DTT, 0.03% BSA.
Representative compounds of the invention were tested for their ability to activate PKM2 using the above assay. For simplicity, the activation activity of these compounds is represented as an AC50 in Tables 4 and 5 and throughout the application. […] “B” refers to an activator of PKM2 with an EC50 between 100 nM and 500 nM. “C” refers to an activator of PKM2 with an EC50 between 500 nM and 1000 nM. “D” refers to an activator of PKM2 with an EC50 between 1 μM and 20 μM. “E” refers a compound whose activation of PKM2 was not measurable. “N/C” refers to AC50 data not available.
Consider `CC(C)OC(=O)N1CCN(C(=O)c2ccc(NS(=O)(=O)c3cccc4cccnc34)cc2)[C@H](C)C1` [Compound 110, (R)-Isopropyl 3-methyl-4-(4-(quinoline-8-sulfonamido)benzoyl)piperazine-1-carboxylate], for which the concentration at half-maximal activity (AC50) was < 100 nM.

`C[C@@H]1CN(Cc2cc(F)c(F)cc2F)CCN1C(=O)c1ccc(NS(=O)(=O)c2cccc3cccnc23)cc1` [Compound 120, (R)—N-(4-(2-methyl-4-(2,4,5-trifluorobenzyl)piperazine-1-carbonyl)phenyl)quinoline-8-sulfonamide]: the AC50 is < 100 nM.

As to `C[C@@H]1CN(Cc2c(F)ccc(F)c2F)CCN1C(=O)c1ccc(NS(=O)(=O)c2cccc3cccnc23)cc1` [Compound 132, (R)—N-(4-(2-methyl-4-(2,3,6-trifluorobenzyl)piperazine-1-carbonyl)phenyl)quinoline-8-sulfonamide], the AC50 was < 100 nM.

With `C[C@@H]1CN(Cc2cc(F)c(F)c(F)c2)CCN1C(=O)c1ccc(NS(=O)(=O)c2cccc3cccnc23)cc1` [Compound 149, (R)—N-(4-(2-methyl-4-(3,4,5-trifluorobenzyl)piperazine-1-carbonyl)phenyl)quinoline-8-sulfonamide], the AC50 is < 100 nM.

`CC(C)[C@H]1CN(Cc2cc(F)cc(F)c2)CCN1C(=O)c1ccc(NS(=O)(=O)c2cccc3cccnc23)cc1` [Compound 176]: the AC50 was in the range of 1000 to 20000 nM.

As for `C[C@H]1CN(C(=O)O[C@@H]2CCOC2)CCN1C(=O)c1ccc(NS(=O)(=O)c2cccc3cccnc23)cc1` [Compound 166], the half-maximal activity concentration (AC50) was 100 to 500 nM.

Regarding `CC1CN(CC2CCCCC2)CC(C)N1C(=O)c1ccc(NS(=O)(=O)c2cccc3cccnc23)cc1` (stereo not drawn) [Compound 198, N-(4-(4-(cyclohexylmethyl)-2,6-dimethylpiperazine-1-carbonyl)phenyl)quinoline-8-sulfonamide], the AC50 was in the range of 100 to 500 nM.

For the compound `CCOC(=O)N1[C@H](C)CN(C(=O)c2ccc(NS(=O)(=O)c3cccc4cccnc34)cc2)C[C@@H]1C` [Compound 117, (2S,6R)-ethyl 2,6-dimethyl-4-(4-(quinoline-8-sulfonamido)benzoyl)piperazine-1-carboxylate], the concentration at half-maximal activity (AC50) is > 20000 nM.

In the case of `C[C@H]1CN(Cc2ccc(Cl)c(F)c2)CCN1C(=O)c1ccc(NS(=O)(=O)c2cccc3cccnc23)cc1Cl` [Compound 185, (S)—N-(3-chloro-4-(4-(4-chloro-3-fluorobenzyl)-2-methylpiperazine-1-carbonyl)phenyl)quinoline-8-sulfonamide], the AC50 fell in the range of 500 to 1000 nM.

In the case of `C[C@H]1CN(C[C@H]2CCOC2)CCN1C(=O)c1ccc(NS(=O)(=O)c2cccc3cccnc23)cc1` [Compound 210], the half-maximal activity concentration (AC50) lay in the range of 100 to 500 nM.

As to `CC(c1ccccc1F)N1CCN(C(=O)c2ccc(NS(=O)(=O)c3cccc4cccnc34)cc2)[C@H](C)C1` (stereo partly drawn) [Compound 183], the half-maximal activity concentration (AC50) is < 100 nM.

On to `C[C@H]1CN(CC2CCOC2)CCN1C(=O)c1ccc(NS(=O)(=O)c2cccc3cccnc23)cc1Cl` (stereo partly drawn) [Compound 187, N-(3-chloro-4-((2S)-2-methyl-4-((tetrahydrofuran-3-yl)methyl)piperazine-1-carbonyl)phenyl)quinoline-8-sulfonamide], for which the AC50 was in the range of 100 to 500 nM.

The same assay, now with this note: Table 5.
Turning to `O=C(c1ccc(NS(=O)(=O)c2cccc3cccnc23)c(OC(F)(F)F)c1)N1CCN(Cc2ccc(Cl)cc2Cl)CC1` [Compound 374, N-(4-(4-(2,4-dichlorobenzyl)piperazine-1-carbonyl)-2-(trifluoromethoxy)phenyl)quinoline-8-sulfonamide], the AC50 was in the range of 500 to 1000 nM.

For the compound `O=C(c1ccc(NS(=O)(=O)c2cccc3cccnc23)cc1Cl)N1CCN(CC2CCCO2)CC1` (stereo not drawn) [Compound 441, N-(3-chloro-4-(4-((tetrahydrofuran-2-yl)methyl)piperazine-1-carbonyl)phenyl)quinoline-8-sulfonamide], the AC50 lay in the range of 1000 to 20000 nM.

On to `COc1cc(C(=O)N2CCN(C(=O)c3cscn3)CC2)ccc1NS(=O)(=O)c1cccc2cccnc12` [Compound 322, N-(2-methoxy-4-(4-(thiazole-4-carbonyl)piperazine-1-carbonyl)phenyl)quinoline-8-sulfonamide], for which the AC50 lay within 100 to 500 nM.

Turning to `O=C(OC1CCOCC1)N1CCN(C(=O)c2ccc(NS(=O)(=O)c3cccc4cccnc34)c(OC(F)(F)F)c2)CC1` [Compound 314, tetrahydro-2H-pyran-4-yl-4-(4-(quinoline-8-sulfonamido)-3-(trifluoromethoxy)benzoyl)piperazine-1-carboxylate], the AC50 was 1000 to 20000 nM.

On to `CC(c1ccc(F)c(Cl)c1)N1CCN(C(=O)c2ccc(NS(=O)(=O)c3cccc4cccnc34)cc2)CC1` (stereo not drawn) [Compound 332, N-(4-(4-(1-(3-chloro-4-fluorophenyl)ethyl)piperazine-1-carbonyl)phenyl)quinoline-8-sulfonamide], for which the AC50 was < 100 nM.

`O=C(c1ccc(NS(=O)(=O)c2cccc3cccnc23)cc1)N1CCN(C(=O)c2ccncc2F)CC1` [Compound 317, N-(4-(4-(3-fluoroisonicotinoyl)piperazine-1-carbonyl)phenyl)quinoline-8-sulfonamide]: the AC50 was < 100 nM.

As for `O=C(c1ccc(NS(=O)(=O)c2cccc3cccnc23)c(OC(F)(F)F)c1)N1CCN(Cc2cn[nH]c2)CC1` [Compound 383], the AC50 lay within 100 to 500 nM.

`O=C(c1ccc(NS(=O)(=O)c2cccc3cccnc23)cn1)N1CCN(Cc2cc(F)cc(F)c2)CC1` [Compound 414, N-(6-(4-(3,5-difluorobenzyl)piperazine-1-carbonyl)pyridin-3-yl)quinoline-8-sulfonamide] came in with an AC50 of 100 to 500 nM.

Consider `O=C(c1ccc(NS(=O)(=O)c2cccc3cccnc23)c(OC(F)(F)F)c1)N1CCN(Cc2ccccc2F)CC1` [Compound 335, N-(4-(4-(2-fluorobenzyl)piperazine-1-carbonyl)-2-(trifluoromethoxy)phenyl)quinoline-8-sulfonamide], for which the AC50 lay within 100 to 500 nM.

With `O=C(c1ccc(NS(=O)(=O)c2cccc3cccnc23)cc1)N1CCN(C(=O)c2cn[nH]c2)CC1` [Compound 372], the AC50 is < 100 nM.

As to `COc1ccc(CN2CCN(C(=O)c3ccc(NS(=O)(=O)c4cccc5cccnc45)c(OC(F)(F)F)c3)CC2)c(OC)c1` [Compound 333, N-(4-(4-(2,4-dimethoxybenzyl)piperazine-1-carbonyl)-2-(trifluoromethoxy)phenyl)quinoline-8-sulfonamide], the AC50 lay in the range of 500 to 1000 nM.

`CC(c1c(F)cc(F)cc1F)N1CCN(C(=O)c2ccc(NS(=O)(=O)c3cccc4cccnc34)cc2)CC1` (stereo not drawn) [Compound 397, N-(4-(4-(1-(2,4,6-trifluorophenyl)ethyl)piperazine-1-carbonyl)phenyl)quinoline-8-sulfonamide]: the concentration at half-maximal activity (AC50) is < 100 nM.

Compound `COc1ccncc1CN1CCN(C(=O)c2ccc(NS(=O)(=O)c3cccc4cccnc34)c(OC(F)(F)F)c2)CC1` [Compound 305, N-(4-(4-((4-methoxypyridin-3-yl)methyl)piperazine-1-carbonyl)-2-(trifluoromethoxy)phenyl)quinoline-8-sulfonamide] yielded an AC50 of 100 to 500 nM.

On to `O=C(c1ccc(NS(=O)(=O)c2cccc3cccnc23)cc1Cl)N1CCN(CC2CCCCO2)CC1` (stereo not drawn) [Compound 439, N-(3-chloro-4-(4-((tetrahydro-2H-pyran-2-yl)methyl)piperazine-1-carbonyl)phenyl)quinoline-8-sulfonamide], for which the AC50 lay within 100 to 500 nM.

Consider `O=C(c1ccc(NS(=O)(=O)c2cccc3cccnc23)cc1)N1CCN(C(c2ccc(F)cc2)C(F)(F)F)CC1` (stereo not drawn) [Compound 351, N-(4-(4-(2,2,2-trifluoro-1-(4-fluorophenyl)ethyl)piperazine-1-carbonyl)phenyl)quinoline-8-sulfonamide], for which the AC50 is < 100 nM.

`CCOC(=O)N1CCN(C(=O)c2ccc(NS(=O)(=O)c3cccc4cccnc34)cn2)CC1` [Compound 447, Ethyl 4-(5-(quinoline-8-sulfonamido)picolinoyl)piperazine-1-carboxylate] had an AC50 of 1000 to 20000 nM.

For the compound `O=C(c1ccc(NS(=O)(=O)c2cccc3cccnc23)cc1)N1CCN(C(=O)C2CCOC2)CC1` (stereo not drawn) [Compound 418, N-(4-(4-(tetrahydrofuran-3-carbonyl)piperazine-1-carbonyl)phenyl)quinoline-8-sulfonamide], the AC50 is 100 to 500 nM.

`O=C(Oc1ccccn1)N1CCN(C(=O)c2ccc(NS(=O)(=O)c3cccc4cccnc34)c(OC(F)(F)F)c2)CC1` [Compound 344, Pyridin-2-yl4-(4-(quinoline-8-sulfonamido)-3-(trifluoromethoxy)benzoyl)piperazine-1-carboxylate]: the AC50 lay in the range of 500 to 1000 nM.

Take `O=C(c1ccc(NS(=O)(=O)c2cccc3cccnc23)cc1)N1CCN(C[C@@H]2CCOC2)CC1` [Compound 445, (R)— and (S)—N-(4-(4-((tetrahydrofuran-3-yl)methyl)piperazine-1-carbonyl)phenyl)quinoline-8-sulfonamide]: the AC50 was < 100 nM.

Turning to `O=C(c1ccc(NS(=O)(=O)c2cccc3cccnc23)c(C(F)(F)F)c1)N1CCN(CC2CCCO2)CC1` (stereo not drawn) [Compound 329, N-(4-(4-((tetrahydrofuran-2-yl)methyl)piperazine-1-carbonyl)-2-(trifluoromethyl)phenyl)quinoline-8-sulfonamide], the AC50 was in the range of 1000 to 20000 nM.

Consider `[2H]C(c1cc(F)cc(F)c1)N1CCN(C(=O)c2ccc(NS(=O)(=O)c3cccc4cccnc34)cc2)CC1` (stereo not drawn) [Compound 450, N-(4-(4-(3,5-difluorobenzyl)piperazine-1-carbonyl)phenyl)quinoline-8-sulfonamide-(D)], for which the AC50 is < 100 nM.

For the origin of these results see patent publication US8889667B2 (Agios Pharmaceuticals, Inc, priority 2010, dated 2014).
